Results as given in article PMC3914206.

What was measured:
Assay type in all cases: binding
panel of 442 kinases [1] = biological target: T1, panel of 442 kinases (Homo sapiens, UniProt Q8TBX8); details: Compound Concentration 10 µM
T1 construct: purchased KINOMEscan
T1 sequence (Q8TBX8 1-421): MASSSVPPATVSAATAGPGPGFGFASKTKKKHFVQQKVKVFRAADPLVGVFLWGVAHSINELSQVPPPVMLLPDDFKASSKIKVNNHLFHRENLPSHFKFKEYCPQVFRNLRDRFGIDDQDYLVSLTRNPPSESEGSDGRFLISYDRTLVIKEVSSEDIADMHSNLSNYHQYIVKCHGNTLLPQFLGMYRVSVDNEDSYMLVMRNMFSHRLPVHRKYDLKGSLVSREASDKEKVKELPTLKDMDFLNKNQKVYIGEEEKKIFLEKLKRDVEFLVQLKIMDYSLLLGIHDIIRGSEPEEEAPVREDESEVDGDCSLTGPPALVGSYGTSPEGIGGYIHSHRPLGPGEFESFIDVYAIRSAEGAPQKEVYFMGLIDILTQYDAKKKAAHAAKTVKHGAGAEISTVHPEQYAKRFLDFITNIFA
From the text: (§1) We assessed the selectivity of members of this scaffold using the KINOMEscan methodology across a near comprehensive panel of 442 kinases [[18,27]].

panel of 442 kinases [2] = biological target: T2, panel of 442 kinases (Homo sapiens, UniProt P29376); details: Compound Concentration 10 µM
T2 construct: purchased KINOMEscan
From the text: as §1

panel of 442 kinases [3] = biological target: T3, panel of 442 kinases (Homo sapiens, UniProt O00506); details: kinase YSK1; compound concentration 10 µM
T3 construct: purchased KINOMEscan
From the text: as §1

T2 sequence (P29376 17-864): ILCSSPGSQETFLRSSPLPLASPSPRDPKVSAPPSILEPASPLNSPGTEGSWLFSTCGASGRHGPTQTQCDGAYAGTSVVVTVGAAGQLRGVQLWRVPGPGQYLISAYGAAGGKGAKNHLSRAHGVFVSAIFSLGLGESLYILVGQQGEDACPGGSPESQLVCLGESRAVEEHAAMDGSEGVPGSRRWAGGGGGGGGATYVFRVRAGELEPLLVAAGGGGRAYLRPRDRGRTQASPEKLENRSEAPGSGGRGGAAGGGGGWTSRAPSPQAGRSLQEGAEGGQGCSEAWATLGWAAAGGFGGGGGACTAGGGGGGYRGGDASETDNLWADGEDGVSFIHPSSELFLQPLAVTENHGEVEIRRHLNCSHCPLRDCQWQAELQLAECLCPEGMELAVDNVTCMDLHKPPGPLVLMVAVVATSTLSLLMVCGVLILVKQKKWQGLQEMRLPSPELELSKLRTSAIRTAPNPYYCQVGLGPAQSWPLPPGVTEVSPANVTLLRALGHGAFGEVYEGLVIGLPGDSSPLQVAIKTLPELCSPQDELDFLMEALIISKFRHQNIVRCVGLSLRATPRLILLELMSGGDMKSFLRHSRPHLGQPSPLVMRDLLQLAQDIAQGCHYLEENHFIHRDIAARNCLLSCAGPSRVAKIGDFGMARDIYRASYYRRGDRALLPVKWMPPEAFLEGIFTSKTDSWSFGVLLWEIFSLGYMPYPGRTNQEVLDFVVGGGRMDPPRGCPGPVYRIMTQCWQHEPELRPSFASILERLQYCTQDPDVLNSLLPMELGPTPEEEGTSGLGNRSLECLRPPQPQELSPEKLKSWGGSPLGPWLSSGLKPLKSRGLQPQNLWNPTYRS
T3 sequence (O00506 whole entry): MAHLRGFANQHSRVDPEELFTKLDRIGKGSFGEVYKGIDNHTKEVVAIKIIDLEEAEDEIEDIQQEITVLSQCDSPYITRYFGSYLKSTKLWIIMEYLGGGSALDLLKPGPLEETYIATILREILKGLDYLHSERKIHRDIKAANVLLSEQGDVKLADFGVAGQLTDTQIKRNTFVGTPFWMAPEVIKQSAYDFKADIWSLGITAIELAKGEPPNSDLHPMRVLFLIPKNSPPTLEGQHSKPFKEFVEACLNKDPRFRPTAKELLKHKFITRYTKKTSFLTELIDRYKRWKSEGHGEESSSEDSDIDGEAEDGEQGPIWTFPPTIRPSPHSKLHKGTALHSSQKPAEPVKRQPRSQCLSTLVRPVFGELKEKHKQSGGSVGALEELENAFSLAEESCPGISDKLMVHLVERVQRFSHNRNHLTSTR

Row | Structure (SMILES) | KINOMEscan: PIP5K2C (panel of 442 kinases [1]) | KINOMEscan: LTK (panel of 442 kinases [2]) | % Ctrl, YSK1 (panel of 442 kinases [3])
1 | COc1cc(C(=O)N2CCC(N3CCN(C)CC3)CC2)ccc1Nc1ncc2c(n1)N(C)c1ccccc1C(=O)N2C [15 (LRRK2-IN-1)] | 40 | 32 | 68 % Ctrl
2 | CCOc1cc(C(=O)N2CCC(N3CCN(C)CC3)CC2)ccc1Nc1ncc2c(n1)N(C1CCCC1)c1ccccc1C(=O)N2C [Compound 26] | 93 | 48 | 90 % Ctrl
3 | COc1cc(C(=O)N2CCC(N3CCN(C)CC3)CC2)ccc1Nc1ncc2c(n1)N1CCc3cccc(c31)C(=O)N2C [Compound 24] | – | – | 60 % Ctrl
4 | COc1cc(C(=O)N2CCC(N3CCN(C)CC3)CC2)ccc1Nc1ncc2c(n1)N(C1CCCC1)c1ccccc1C(=O)N2C [Compound 25, 11-cyclopentyl-2-((2-methoxy-4-(4-(4-methylpiperazin-1-yl)piperidine-1-carbonyl)phenyl)amino)-5-methyl-5H-benzo[e]pyrimido[5,4-b][1,4]diazepin-6(11H)-one] | 96 | 11 | 66 % Ctrl
